Experimental data reported in ChEMBL document CHEMBL1201862, “PubChem BioAssay data set” (2004).
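Grown in 96-well plates, cells were treated for 48 hours with each compound at five concentrations. Insufficient inhibition: endpoint recorded as highest concentration tested. Abbreviation: GI50, concentration required for 50% inhibition of growth.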 Calls of active or inactive are those of the source. Cut-off read from the data, not from the text of the source: active = GI50 up to about 1.1 µM and inactive = higher.

Legend:
Assay in all cases: growth of human tumour cells (NCI), 48 h
786-0 = test system: 786-0
A549 = test system: A549
ACHN = test system: ACHN
EKVX = test system: EKVX
Hs-578T = test system: Hs-578T
IGROV-1 = test system: IGROV-1
M14 = test system: M14
MCF7 = test system: MCF7
MDA-MB-435 = test system: MDA-MB-435
Malme-3M = test system: Malme-3M
NCI-H522 = test system: NCI-H522
OVCAR-3 = test system: OVCAR-3
OVCAR-5 = test system: OVCAR-5
RXF 393 = test system: RXF 393
SF-295 = test system: SF-295
SK-MEL-28 = test system: SK-MEL-28
SK-OV-3 = test system: SK-OV-3
TK-10 = test system: TK-10
UACC-257 = test system: UACC-257
SR = test system: SR

SMILES	GI50 (786-0)	GI50 (A549)	GI50 (ACHN)	GI50 (EKVX)	GI50 (Hs-578T)	GI50 (IGROV-1)	GI50 (M14)	GI50 (MCF7)	GI50 (MDA-MB-435)	GI50 (Malme-3M)	GI50 (NCI-H522)	GI50 (OVCAR-3)	GI50 (OVCAR-5)	GI50 (RXF 393)	GI50 (SF-295)	GI50 (SK-MEL-28)	GI50 (SK-OV-3)	GI50 (TK-10)	GI50 (UACC-257)	GI50 (SR)
O=C(/C=C/c1ccc(O)c(O)c1)OCCc1ccc2ccccc2c1	8.59 µM (inactive)	9.35 µM (inactive)	2.86 µM (inactive)	14.6 µM (inactive)	4.79 µM (inactive)	2.32 µM (inactive)	4.95 µM (inactive)	2.74 µM (inactive)	2.54 µM (inactive)	10.9 µM (inactive)	2.38 µM (inactive)	3.26 µM (inactive)	16.1 µM (inactive)	9.46 µM (inactive)	10.9 µM (inactive)	9.14 µM (inactive)	13.5 µM (inactive)	7.11 µM (inactive)	11 µM (inactive)	
Cc1cc(=O)n2nc(CSc3nnc(N)s3)sc2n1	> 100 µM (inactive)	> 100 µM (inactive)	> 100 µM (inactive)	> 100 µM (inactive)	> 100 µM (inactive)	> 100 µM (inactive)	> 100 µM (inactive)	> 100 µM (inactive)	> 100 µM (inactive)	> 100 µM (inactive)	> 100 µM (inactive)	> 100 µM (inactive)	> 100 µM (inactive)	> 100 µM (inactive)	> 100 µM (inactive)	> 100 µM (inactive)	> 100 µM (inactive)	> 100 µM (inactive)	> 100 µM (inactive)	
CC1(C)N(OC2CCCCO2)C(c2ccccc2)C(c2ccccc2)=[N+]1[O-] (configuration not stated)	> 100 µM (inactive)	58.6 µM (inactive)	> 100 µM (inactive)	> 100 µM (inactive)	94 µM (inactive)	> 100 µM (inactive)	64 µM (inactive)	> 100 µM (inactive)		> 100 µM (inactive)		54.3 µM (inactive)	> 100 µM (inactive)	47.5 µM (inactive)	41 µM (inactive)	> 100 µM (inactive)	> 100 µM (inactive)	> 100 µM (inactive)	> 100 µM (inactive)	27 µM (inactive)
C/C(O)=C1\CC2CN3CCc4c([nH]c5ccccc45)C3CC2CC1=O (configuration not stated)	38 µM (inactive)	> 100 µM (inactive)	82.8 µM (inactive)	37 µM (inactive)		> 100 µM (inactive)	49.4 µM (inactive)			> 100 µM (inactive)	65.6 µM (inactive)	27.9 µM (inactive)	70 µM (inactive)	20.9 µM (inactive)	> 100 µM (inactive)	> 100 µM (inactive)	24.8 µM (inactive)	> 100 µM (inactive)	> 100 µM (inactive)	23.4 µM (inactive)
N#Cc1c(-c2ccc(Cl)cc2)cc(-c2ccc(Nc3ccnc4cc(C(F)(F)F)ccc34)cc2)nc1N	15 µM (inactive)	83.4 µM (inactive)	17.4 µM (inactive)	67 µM (inactive)		29.2 µM (inactive)	19.5 µM (inactive)	28.8 µM (inactive)	19.5 µM (inactive)	63.2 µM (inactive)	31.4 µM (inactive)		30.2 µM (inactive)	22.1 µM (inactive)	19.3 µM (inactive)	22.1 µM (inactive)	39.6 µM (inactive)	31.2 µM (inactive)	> 100 µM (inactive)	3.74 µM (inactive)
CCc1cc2c(c3c1CCC3=O)CC1(Cc3ccc(C)cc3C1)C2 (configuration not stated)	96.8 µM (inactive)	18.2 µM (inactive)	27.3 µM (inactive)	16.8 µM (inactive)	19.7 µM (inactive)	42.9 µM (inactive)	> 100 µM (inactive)	32.2 µM (inactive)	33.7 µM (inactive)	32.1 µM (inactive)	23.8 µM (inactive)	37.3 µM (inactive)	29.4 µM (inactive)	34.8 µM (inactive)	80.2 µM (inactive)		71.3 µM (inactive)	> 100 µM (inactive)	32.2 µM (inactive)	
S=C(NCCc1ccccn1)N/N=C/c1ccccn1	0.0653 µM (active)	0.578 µM (active)	< 0.01 µM (active)	0.0243 µM (active)		< 0.01 µM (active)	0.0131 µM (active)	< 0.01 µM (active)	4.09 µM (inactive)	2.62 µM (inactive)	< 0.01 µM (active)	< 0.01 µM (active)	< 0.018 µM (active)		0.964 µM (active)	1.87 µM (inactive)	1.12 µM (active)	0.42 µM (active)	< 0.0113 µM (active)	< 0.01 µM (active)
O[C@@H]1[C@H](OC2c3ccccc3-c3ccccc32)[C@H](OCc2ccccc2)[C@@H]2OC[C@H]1O2	19.7 µM (inactive)	34.6 µM (inactive)	> 100 µM (inactive)	> 100 µM (inactive)	43.4 µM (inactive)	> 100 µM (inactive)	> 100 µM (inactive)	> 100 µM (inactive)	> 100 µM (inactive)	> 100 µM (inactive)	> 100 µM (inactive)	> 100 µM (inactive)	> 100 µM (inactive)	> 100 µM (inactive)	> 100 µM (inactive)	> 100 µM (inactive)		> 100 µM (inactive)	> 100 µM (inactive)	
C=CCC1(C#N)C(=S)NC2=C(C(=O)CC(C)(C)C2)C1c1ccccc1 (configuration not stated)	35.9 µM (inactive)	33.8 µM (inactive)		19.2 µM (inactive)		55.1 µM (inactive)	59.8 µM (inactive)		33 µM (inactive)				> 100 µM (inactive)	42.7 µM (inactive)		61.8 µM (inactive)				50.6 µM (inactive)
NNC(=O)Cc1cccnc1	> 100 µM (inactive)	> 100 µM (inactive)	> 100 µM (inactive)	> 100 µM (inactive)	> 100 µM (inactive)	> 100 µM (inactive)	> 100 µM (inactive)	> 100 µM (inactive)	> 100 µM (inactive)	> 100 µM (inactive)	> 100 µM (inactive)	> 100 µM (inactive)	> 100 µM (inactive)	> 100 µM (inactive)	> 100 µM (inactive)	> 100 µM (inactive)	> 100 µM (inactive)	> 100 µM (inactive)	> 100 µM (inactive)	
O=C1NC2ON=C(c3ccccc3)C2C2ON=C(c3ccccc3)N12 (configuration not stated)	> 100 µM (inactive)	> 100 µM (inactive)	> 100 µM (inactive)	> 100 µM (inactive)	63.2 µM (inactive)	54.3 µM (inactive)	> 100 µM (inactive)	77.4 µM (inactive)		> 100 µM (inactive)	40.5 µM (inactive)	> 100 µM (inactive)	> 100 µM (inactive)	> 100 µM (inactive)	> 100 µM (inactive)		> 100 µM (inactive)	> 100 µM (inactive)	> 100 µM (inactive)	
COc1ccc(C2C3CCc4ccccc4C3=NN2S(=O)(=O)c2ccc(/C=C/C(=O)O)cc2)cc1 (configuration not stated)	1.82 µM (inactive)	5.11 µM (inactive)	3.21 µM (inactive)	8.99 µM (inactive)		0.755 µM (active)	4.75 µM (inactive)	2.1 µM (inactive)	1.07 µM (active)	2.77 µM (inactive)	2.31 µM (inactive)	3.99 µM (inactive)	9.91 µM (inactive)	3.15 µM (inactive)	2.93 µM (inactive)		1.55 µM (inactive)	6.79 µM (inactive)		0.869 µM (active)
CC[C@@]1(CCC(=O)NCCc2c[nH]c3ccccc23)CCC(=O)N2CCc3c([nH]c4ccccc34)[C@H]21	11.7 µM (inactive)	8.73 µM (inactive)	15.3 µM (inactive)	12.2 µM (inactive)		4.04 µM (inactive)	12.6 µM (inactive)	4.44 µM (inactive)	7.36 µM (inactive)	5.35 µM (inactive)	3.9 µM (inactive)	24.5 µM (inactive)	22.8 µM (inactive)	6.12 µM (inactive)	5.13 µM (inactive)	39.4 µM (inactive)	36.2 µM (inactive)	16.7 µM (inactive)	14 µM (inactive)	
ClCCNCCNCCCl.ClCCNCCNCCCl.[O-][Cl+3]([O-])([O-])O	18.8 µM (inactive)	73.5 µM (inactive)	21.9 µM (inactive)	> 100 µM (inactive)		22.5 µM (inactive)	19.5 µM (inactive)			19.5 µM (inactive)	11.4 µM (inactive)	17.6 µM (inactive)	24.9 µM (inactive)	40.7 µM (inactive)	54.6 µM (inactive)	46.2 µM (inactive)	> 100 µM (inactive)	49.9 µM (inactive)	27 µM (inactive)	23.1 µM (inactive)
O=S1(=O)OCCOS(=O)(=O)C1S(=O)(=O)c1cccc2ccccc12	99.5 µM (inactive)	> 100 µM (inactive)	> 100 µM (inactive)	> 100 µM (inactive)		> 100 µM (inactive)	> 100 µM (inactive)	> 100 µM (inactive)	> 100 µM (inactive)	> 100 µM (inactive)		> 100 µM (inactive)	> 100 µM (inactive)		> 100 µM (inactive)	> 100 µM (inactive)		> 10 µM (inactive)	> 100 µM (inactive)	> 100 µM (inactive)
COc1cc2nc(-c3ccccc3F)nc(O)c2cc1OC	> 100 µM (inactive)	> 100 µM (inactive)	> 100 µM (inactive)	> 100 µM (inactive)	42.9 µM (inactive)	> 100 µM (inactive)	> 100 µM (inactive)	86.9 µM (inactive)		> 100 µM (inactive)	89.5 µM (inactive)	> 100 µM (inactive)	> 100 µM (inactive)	> 100 µM (inactive)	> 100 µM (inactive)		> 100 µM (inactive)	> 100 µM (inactive)	> 100 µM (inactive)	> 100 µM (inactive)
